Laboratory results from patent publication US4762848A, “1,3-thiazoles and their use as immunomodulators” (Hoechst Aktiengesellschaft, priority 1985, dated 1988).

Legend:
macrophages [1] = assay: Stimulation of macrophage activity (chemiluminescence), relative to the compound from Example 7; assay type: in vivo, NMRI mice; details: 100 mg/kg, 1 × i.p. day 0; relative to Example 7 = 100%
Protocol: (§1) This entailed investigation of the effect of the test substance obtained as in exemplary embodiment 7 on the stimulation of peritoneal macrophages in 6-8 week old NMRI mice. Female mice received the test substance in parenteral or oral doses of 25 mg/kg, 50 mg/kg, 100 mg/kg and 200 mg/kg. Buffered saline solution was administered to a control group. The mice were sacrificed three days after the injections, and the peritoneal macrophages of the animals were examined for their state of activation. The secretion of the lysosomal enzymes (β-galactosidase, β-glucuronidase and N-acetyl-β-D-glucosaminidase) was determined as one measure of macrophage activation. […] The level of oxidative metabolism in macrophages is taken as another measure of their state of activation. This activity is measured with the assistance of a biolumate by determination of the chemiluminescence.
(§2) For this purpose, either 3×10^6 macrophages were cultured with 1 ml of TC 199 culture medium in Petri dishes of diameter 30 mm or 10^6 macrophages were cultured with 100 μl of medium in round-bottomed polyethylene tubes (for determination of the chemiluminescence), with 5% CO2 and at 37° C.
(§3) After incubation for one hour, the cultures were washed to remove floating cells. The chemiluminescence (tube culture) was then determined directly, whereas the Petri dishes were incubated for a further 24 hours at 37° C. and then the enzyme and pinocytosis activities in the cultures were determined.
(§4) NMRI mice were treated with the compounds according to the invention as described in experiment 2.
(§5) The macrophage function (chemiluminescence and enzyme activity) was checked as a test to determine the immunostimulation.
(§6) It can be seen from the table that in comparison with macrophages from untreated animals, the chemiluminescence reaction of these cells was also greatly stimulated by all the test substances, and their content of lysosomal enzymes was markedly raised.

macrophages [2] = assay: Stimulation of macrophage activity (exocytosis / lysosomal enzyme activity), relative to the compound from Example 7; assay type: in vivo, NMRI mice; details: 100 mg/kg, 1 × i.p. day 0; relative to Example 7 = 100%
Protocol: as §1, §2, §3, §4, §5, §6

DTH reaction (SRBC) = assay: Stimulation of the DTH reaction, relative to the compound from Example 7; assay type: in vivo, NMRI mice; details: 1 × i.p. day 0, relative to Example 7 = 100%
Protocol: Either 10^6 or 10^9 red blood cells from sheep were administered intravenously to each animal in groups of 5 female NMRI mice weighing 18-20 g. Sheep erythrocytes are regarded in immunology as a standard test substance (antigen) for the induction of cellular and humoral immune reactions. In particular, this test provides information about the functioning of the T-cell-dependent component (T-helper cells) of the immune system. The test substance obtained as in exemplary embodiment 7 ([2-(3-carboxy-1-propylthio)-4 -methyl-1,3-thiazol-5-yl]acetic acid) was administered intraperitoneally and perorally, respectively, […], each animal received 2×10^8 sheep erythrocytes injected into the underside of the foot and, 24 hours later, the swelling of the foot was measured. The foot swelling is induced by a skin reaction of the delayed type (delayed type hypersensitivity, DTH) and is, as is known to the expert, a measure of the cellular immune response (Collins, F. M. and Mackaness, G. B., J. Immunol. 101, 830-845, 1968). The results compiled in Table 1 illustraste that there is an increase in the cellular immune response owing to the administration of the subst nce obtained according to the invention, for example after imnunization with 10^6 or 10^9 sheep erythrocytes. An optimum stimulation can be observed in this experimental design on administration of 20-40 mg/kg test substance.
NMRI mice were treated with the substances according to the invention as described in experiment 1.
The DTH reaction was checked as a test to determine the immunostimulation.
It can be seen from the table that the DTH reaction in the animals pretreated with the test substances is more pronounced than in the corresponding control animals.

Candida albicans = details: ketoconazole 70 mg/kg (d-1-6, p.o.) alone
Protocol: Female Balb/c mice (15/group) were infected intravenously with Candida albicans (10^6 cfu/mouse) (day 0). Three groups were formed: group 1 was treated with physiological saline solution, and group 2 received 70 mg/kg ketoconazole orally on 7 consecutive days (days -1-6). Group 3 received 10 intraperitoneal injections of 2 mg/kg test substance on days 3-30 (every 3rd day) in addition to ketoconazole. The number of animals which died was recorded each day, and the time at which 50% of the animals in each group had died (T50) was determined.

Compound	Macrophage activity: Chemiluminescence, relative activity (macrophages [1])	Macrophage activity: Exocytosis, relative activity (macrophages [2])	DTH reaction (SRBC), relative activity (DTH reaction (SRBC); 20 mg/kg)	DTH reaction (SRBC), relative activity (DTH reaction (SRBC); 100 mg/kg)	T50 (time at which 50% of the animals had died) (Candida albicans)
O=C(O)CSc1scnc1C(=O)O [Example 15, 5-Carboxymethylthio-1,3-thiazol-4-ylcarboxylic acid]	49%	172%			
O=C(O)CCCSc1nnc(SCCCC(=O)O)s1 [Example 27, 2,5-Di(3-carboxy-1-propylthio)-1,3,4-thiadiazole]	22%	258%	144%		
O=C(O)CSc1nc(O)nn1-c1ccccc1 [Example 24, 1-Phenyl-3-hydroxy-1,2,4-triazol-5-ylmercaptoacetic acid]	57%	218%		115%	
CC(=O)N1CCN(c2ccc(OCC3COC(Cn4ccnc4)(c4ccc(Cl)cc4Cl)O3)cc2)CC1 (centres unmarked) [Ketoconazole, ketoconazole]					18 days
Cc1nc(SCCCC(=O)O)sc1C(=O)O [Example 39]	35%	148%		210%	
CSc1nc(C)c(CC(=O)O)s1 [Example 1, 2-Methylmercapto-4-methyl-1,3-thiazol-5-ylacetic acid]	29%	124%			
O=C(O)CSc1nnc(SCC(=O)O)s1 [Example 25, 2,5-Dicarboxymethylthio-1,3,4-thiadiazole]	26%	186%		115%	
